Measured values taken from patent US20130211059A1, “COMPOSITION SUPPRESSING MATRIX-METALLOPROTEINASE ACTIVITY” (University of Miyazaki, priority 2010, published 2013).

Experiments:
[1] = tested on: abdominal aorta aneurysm formation; assay: Angiotensin II-induced apolipoprotein E knockout mouse aneurysm model; type: in vivo; details: angiotensin II-induced apolipoprotein E knockout mice; 1 g/kg body weight/day intraperitoneally for 28 days; FIG. 4
Method: Each angiotensin II-induced apolipoprotein E knockout mouse was produced by subcutaneous administration of a pressor peptide, angiotensin II (1000 ng/kg/min), to a 12-week-old apolipoprotein E-deficient mouse via osmotic pump for 28 days. After osmotic pump implantation, 2-DG was intraperitoneally administered at 1 g/kg body weight/day for 28 days (the number of mice (n)=14). After 28 days of administration, the abdominal aorta was removed and then the aortic diameter was measured. As negative control, the abdominal aorta was similarly removed from mice (the number of mice (n)=14) produced by administration of saline instead of 2-DG, and then the aortic diameter was measured.

[2] = tested on: abdominal aorta aneurysm formation; assay: Calcium chloride application-induced mouse aneurysm model; type: in vivo
Method: The mouse aneurysm model was induced by peri-aortic application of calcium chloride to 8-week-old male C57BL/6J mice.
2-DG was intraperitoneally administered at 100 mg/kg body weight or 1 g/kg body weight/day to the mouse aneurysm model for 28 days. After 28 days, the abdominal aorta was removed and then the diameter thereof was measured. An abdominal aorta was removed similarly from mice to which saline had been administered instead of 2-DG after application of calcium chloride as a negative control, and a mouse that had been treated in the same manner except for application of sodium chloride instead of calcium chloride as a control, and then the diameter of each thereof was measured.
Panel B is a graph showing the diameter (mm) of the abdominal aorta removed from each group.

[3] = tested on: MMP-1, CCL-2, TNF-α, MMP-9, CCL-8 and IL-6 gene expression; assay: Expression of atherosclerosis/aneurysm-related genes in cultured macrophages by DNA microarray; type: cell-based; details: U937 cells pretreated, then 10 nmol/L PMA, 24 hours after stimulation, FIG. 5
Method: In this example, the effects of 2-DG on gene expressions associated with development of atherosclerosis and/or aneurysm in cultured macrophages were evaluated by DNA microarray (Agilent). The evaluated genes associated with atherosclerosis induction- and/or aneurysm formation were MMP-1 and MMP-9, chemokines (CCL-2 and CCL-8) and inflammatory cytokines (TNF-α and IL-6) (Libby P., Inflammation in atherosclerosis, Nature 2002, 420 (6917): 868-874 and Tung W S, Lee J K, Thompson R W., Simultaneous analysis of 1176 gene products in normal human aorta and abdominal aortic aneurysms using a membrane-based complementary DNA expression array. J Vasc Surg. 2001, 34(1): 143-150). Monocytic cells (U937) were stimulated with 10 nmol/L phorbol ester (PMA) for differentiation to macrophages. Some U937 cells were pretreated with 2-DG and then stimulated with 10 nmol/L PMA. As control cells, monocytic cells (U937) to which neither phorbol ester nor 2-DG had been administered were used. At 24 hours after stimulation, cells were collected, RNA was extracted, cDNA was constructed from RNA, and then the resultant was arrayed. The results of arraying were analyzed by GeneSpring GX10 software, so that the expression levels of the atherosclerosis induction- and/or aneurysm-related genes of each cell sample were evaluated. […]

[4] = tested on: MMP-9; assay: MMP-9 activity in ex vivo culture of human AAA wall, zymogram; type: cell-based; details: FIG. 2 D
Method: (§1) The human AAA wall was homogenized, the obtained samples were evaluated for GLUT-3 protein expression by Western blot, and MMP-9 activity was determined by zymography. Western blot analysis was conducted by subjecting 10 μg of the extracted protein (quantified) to SDS-polyacrylamide gel electrophoresis for separation, subsequently transferring and immobilizing the resultant onto a membrane to prepare a blot, carrying out a reaction of the blot with an anti-GLUT-3 antibody for 1 hour and then with a secondary antibody, and then detecting signals. Meanwhile, zymogram analysis was conducted by subjecting 5 μg of the extracted protein (quantified) to electrophoresis on a zymogram gel plate to separate the protein. The method employed thereafter was carried out according to the instructions of a kit (Invitrogen). After 24 hours of a reaction at 37° C., zymogram gel was stained overnight with a Coomassie blue solution and then destained, and then enzyme activity was detected.
(§2) In this example, 2-DG, cytochalasin, or phloretin was administered to evaluate the suppression of MMP-9 activity in cultured macrophages or the human AAA wall, using a zymogram used in Example 1.
In the meantime, U937 cells were pretreated with a glucose transporter inhibitor (cytochalasin or phloretin), and then stimulated with 10 nmol/L PMA. […]

[5] = tested on: MMP-9; assay: PMA-induced MMP-9 activity in cultured macrophages (U937), gelatin zymogram; type: cell-based; details: U937 cells pretreated with substance, then stimulated with 10 nmol/L PMA, FIG. 2 A-C
Method: as §1, §2
In the meantime, U937 cells were pretreated with a glucose transporter inhibitor (cytochalasin or phloretin), and then stimulated with 10 nmol/L PMA. In addition, U937 cells were pretreated with 2-DG and then stimulated with 10 nmol/L PMA. Furthermore, 2-DG was administered to the ex vivo culture of human AAA wall.
In panels A to D, “MMP-9 (L)” denotes latent MMP-9 activity and “MMP-9 (A)” denotes active MMP-9 activity. In addition, in panel D, “MMP-2 (L)” denotes latent MMP-2 activity and “MMP-2 (A)” denotes active MMP-2 activity. Moreover, in panel D, “control” denotes an aqueous solvent not containing 2-DG.

[6] = tested on: SIRT1 gene; assay: SIRT1 gene expression in cultured macrophages; type: cell-based; details: U937 cells pretreated with 2 mg/mL, then PMA; 24 hours after stimulation; FIG. 6 C
Method: In this example, the effect of 2-DG was evaluated on the expression of SIRT1 gene in cultured macrophages. […] Gene expression was evaluated at the mRNA level in a manner similar to that used in Example 4.
In the meantime, 2-DG (2 mg/mL) was pretreated to the U937 cell culture solution, and stimulated them with PMA. As control cells, monocytic cells (U937) to which neither phorbol ester nor 2-DG had been administered and monocytic cells (U937) to which only phorbol ester had been administered were used. At 24 hours after stimulation, SIRT1 gene expression levels were compared, and the results are shown in panel C of FIG. 6.

| Molecule | aneurysm formation (aortic diameter) [1] | expansion of aortic diameter following application of calcium chloride ([2]; C57BL/6J mice, 100 mg/kg or 1 g/kg body weight/day intraperitoneally for 28 days, FIG. 3) | vascular wall structure (tunica media layers, cytoprotective effect) ([2]; calcium chloride mouse aneurysm model, mice treated with 2-DG) | expression levels of atherosclerosis induction- and/or aneurysm-related genes (MMP-1, CCL-2, TNF-α, MMP-9, CCL-8, IL-6), mRNA [3] | MMP-9 activity in ex vivo culture of the human AAA wall [4] | PMA-induced MMP-9 activity [5] | SIRT1 gene expression level [6] |
| --- | --- | --- | --- | --- | --- | --- | --- |
| O=CC[C@@H](O)[C@H](O)[C@H](O)CO [2-DG, 2-deoxyglucose] | suppressed | suppressed | maintained the vascular wall structure | decreased | suppressed | decreased | significantly increased |
| O=C(CCc1ccc(O)cc1)c1c(O)cc(O)cc1O [phloretin] | – | – | – | – | – | decreased | – |
| cytochalasin | – | – | – | – | – | decreased | – |
